Assay results as given in patent EP2468280A1, “Use of prokineticin 1 receptor agonists to promote the differentiation of epicardin+ progenitor cells” (Université de Strasbourg, priority 2010, dated 2012).

Assays:
[1] = tested on: Coronary endothelial cells (H5V cells); test: In vitro angiogenesis, tube-like formation on Matrigel; assay type: cell-based; conditions: serum free medium, 24h
Method: Coronary endothelial cells (H5V cells) were maintained in DMEM supplemented with 10% heat inactivated Fetal Calf Serum (FCS), glutamine (1mM) under 5% CO2 at 37°C.
In order to evaluate the potential angiogenic activity of the non peptide PKR1 agonists, the test of Growth Factor Reduced Matrigel (GFR Matrigel) 24 well plate was performed. Matrigel leads to the differentiation of many cell types and induces the formation and organization of endothelial cells into capillary tubules. Twenty-four-well culture plates were coated with Matrigel and endothelial cells (H5V) were trypsin-harvested and seeded onto the coated plates at 10^5 cells per well in the serum free assay medium with PKR1 agonists, IS1 and prokineticin-2, and incubated at 37°C for 24h. Tube formation as two dimensional branched structures were observed using an inverted phase contrast microscope (Zeiss), and the number of branching points were quantified in per well from each sample. Each experiment was repeated at least three times. Images were captured at a magnification of X10 with a digital microscope camera system (Urayama K et al., 2007).

GFP-PKR1 = target: T1, GFP-PKR1 (Homo sapiens, UniProt Q8TCW9); test: PKR1 internalization in CHO-K1 cells transfected with GFP-PKR1; assay type: cell-based; conditions: CHO-K1 cells expressing GFP-PKR1, 48h after transfection, 37°C, 20 min imaging
T1 construct: expressed in transfected cells; host or cells: CHO-K1 cells, transient transfection with Lipofectamine2000
T1 sequence (Q8TCW9 whole entry): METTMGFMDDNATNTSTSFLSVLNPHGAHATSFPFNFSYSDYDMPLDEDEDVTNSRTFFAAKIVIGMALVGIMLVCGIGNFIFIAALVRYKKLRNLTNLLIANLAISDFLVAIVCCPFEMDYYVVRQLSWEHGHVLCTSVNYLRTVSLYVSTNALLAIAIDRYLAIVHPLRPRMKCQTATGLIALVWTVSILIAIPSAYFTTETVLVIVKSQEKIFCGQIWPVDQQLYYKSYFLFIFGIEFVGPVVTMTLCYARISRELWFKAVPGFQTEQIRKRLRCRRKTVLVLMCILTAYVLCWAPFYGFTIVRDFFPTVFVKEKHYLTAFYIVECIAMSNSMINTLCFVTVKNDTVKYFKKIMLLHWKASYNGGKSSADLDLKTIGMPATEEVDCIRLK
Method: The capacity of agonist compounds to induce internalization of PKR1 was assessed. Therefore, CHO-K1 cells transfected with a plasmid encoding GFP-PKR1 (Green Fluorescent Protein-PKR1), in the presence of Lipofectamine2000 (Invitrogen), were used. Cells were stimulated, 48h after transfection, with or without agonist compound, at 37°C. GFP is a fluorescent protein fusion (26.9 kDa) which has a major excitation peak at a wavelength of 396 nm and a minor one at 472 nm. Its emission peak is at 504 nm which is in the lower green portion of the visible spectrum. Fluorescence allowed tracking the localization of PKR1 after stimulation by the agonist (membrane or subcellular). Cells were seeded in glass-bottom coated with polyL-lysine and receptor studies were performed in the presence of various PKR1-ligands. Samples were observed under a Leica confocal microscope (SP2 AOBS MP) with objective 63× at 37°C. Images were automatically recorded during 20 min, with increasing time intervals to avoid bleaching effects because of repetitive scanning. Reconstituted videos contained 42 images and lasted 2 second.

PKR1 = test: Measurement of intracellular calcium in CHO-K1-PKR1 cells (Fluo 4-AM, confocal microscope); assay type: cell-based; conditions: CHO-K1 cells infected with adenovirus carrying PKR1 cDNA, 48h after infection, 37°C
Method: CHO-K1 (Chinese Hamster Ovary) cells were infected with an adenovirus carrying PKR1 cDNA. Cells were then stimulated, 48h after infection, with or without IS1 agonists, at 37°C.
Calcium imaging was conducted essentially as previously described (Horinouchi et al., 2007) In brief, Intracellular free calcium [Ca^2+]i was measured with the fluorescent Ca^2+ indicator dye Fluo 4-AM, the membrane-permeant acetoxymethyl ester form of Fluo 4 (Invitrogen). Changes in [Ca^2+]i were determined from variations in the fluorescence intensity of Fluo 4-AM. Briefly, trypsinized CHO-K1-PKR1 cells were seeded onto glass bottom culture dishes (MatTek, MA, USA) for 24 h. […] The fluorescence in the cells was excited at a wavelength of 488 nm and a series of images (total exposure time: 300 s) were acquired at 0.5s intervals at emission wavelength 518 nm. Data are presented as the fluorescence intensity of 3 randomly chosen cells within a randomly selected 40× field. To evaluate the effect of IS1 compound on [Ca^2+]i in CHO-K-PKR1, the maximum change in fluorescence intensity upon addition of IS1 was measured and normalized to the baseline fluorescence obtained before IS 1 addition.

cEPPC = test: Cardiomyocyte differentiation of cEPPC (contractility by time lapse microscopy, troponin immunostaining); assay type: cell-based, C57BL/B6 mice; conditions: beta adrenergic stimuli, isoproterenol 25 nM
Method: Hearts were removed from P1 neonate C57BL/B6 mice or PKR1 null mutant mice, cut into pieces (approximately 1 mm^3), rinsed in PBS to remove excess blood and plated onto 0.1 % gelatin petri dish in DMEM containing GlutaMax, 4.5 g /L glucose, penicillin, streptomycin and 15 % fetal calf serum. Cultures were maintained with minimum disturbance to allow explants to adhere. All cells were maintained at 37°C in a humidified air 5% CO2 atmosphere. After 4 days explants were removed and cells were gently washed and fresh medium with DMEM containing GlutaMax, 4.5 g /L glucose, penicillin, streptomycin and 10 % fetal calf serum serum was added. The cells were cultured during 10 days and trypsinized for experimentation.
For cardiomyogenesis, cells were plated at 2x10^4 onto 1% gelatin coated culture chamber in DMEM containing GlutaMax, 4.5 g /L glucose, penicillin, streptomycin and 10 % fetal calf serum. The cells were maintained in culture during six days and medium were change every 2 days. After 6 days, cardiomyocyte differentiation can be induced using culture medium supplemented with 1µM dexamethasone, 50µg/ml ascorbic acid, 10mM glycerophosphate without or with 10 nM of prokineticin-2. The medium was change every 2 days during 36 days. […]
Cells were fixed in 3,7% formaldehyde at 4°C 1 hours. […] The immunofluorescence was detected by Leica TCSNT fluorescent microscope.

O=C(NCc1cccnc1)/C(=C\c1ccco1)NC(=O)c1ccccc1 [IS1]
in vitro angiogenesis (tube-like formation of the endothelial cells on Matrigel) [1]: Induction of in vitro angiogenesis
PKR1 internalization (GFP-PKR1): specifically interacts with PKR1 and induces its internalization
activation of PKR1 signalling pathway (intracellular calcium release) (PKR1): able to activate the PKR1 signalling pathway

CC(C)NCC(O)c1ccc(O)c(O)c1 (stereo not shown) [isoproterenol, Isoproterenol]
beating frequence of cardiomyocytes induced from cEPPC (cEPPC): beating frequence is increased
